Data on three molecules can be found in US20230272029A1, “CO-AGONISTS AT GLP-1 AND GIP RECEPTORS SUITABLE FOR ORAL DELIVERY” (Novo Nordisk A/S, priority 2020, published 2023).

Marks after values point to notes of the source that are not given here. Starred links: 1 amine or outer side, 2 acyl side, 3 side chain; linkers in the order of their positions; H or OH if unused. Non-standard residues stand in square brackets, D forms with d. Residues, ends and D or L forms follow the SMILES beside them. Groups on a side chain read outwards from the residue. *: point of attachment. C18 diacid = O=C(O)CCCCCCCCCCCCCCCCC(=O)*; γGlu = O=C(O)[C@H](CCC(=O)[*:2])N[*:1]; εLys = N[C@@H](CCCCN[*:1])C(=O)[*:2]; AEEA = NCCOCCOCC(=O)O; Aib = CC(C)(N)C(=O)O

This data set is described as follows: Pharmacokinetic study in dogs after oral dosing of tablets with SNAC. It is filed as in vivo, Beagle dogs. The following applies: dog, in vivo, po. In short, it runs like this:
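Male beagle dogs were fasted and given a single oral tablet containing 3-4 mg test substance with 100-300 mg SNAC, in groups of 6-8. Plasma from serial EDTA blood samples was analysed by LC-MS, and t1/2, Cmax/D, tmax and AUC/D were obtained by non-compartmental analysis.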
Molecule `CC[C@H](C)[C@H](NC(=O)[C@H](Cc1ccccc1)NC(=O)[C@H](CCC(=O)O)NC(=O)[C@H](CCCNC(=N)N)NC(=O)[C@H](C)NC(=O)[C@H](C)NC(=O)[C@H](CCC(N)=O)NC(=O)[C@H](CCC(=O)O)NC(=O)[C@H](CCC(=O)O)NC(=O)[C@H](CC(C)C)NC(=O)[C@H](CC(C)C)NC(=O)[C@@H](NC(=O)[C@H](CO)NC(=O)[C@H](Cc1ccc(O)cc1)NC(=O)[C@H](CC(=O)O)NC(=O)[C@H](CO)NC(=O)[C@@H](NC(=O)[C@H](Cc1ccccc1)NC(=O)[C@@H](NC(=O)CNC(=O)[C@H](CCC(=O)O)NC(=O)C(C)(C)NC(=O)[C@@H](N)Cc1ccc(O)cc1)[C@@H](C)O)[C@@H](C)O)[C@@H](C)CC)C(=O)N[C@@H](CCC(=O)O)C(=O)N[C@@H](Cc1c[nH]c2ccccc12)C(=O)N[C@@H](CC(C)C)C(=O)N[C@@H](CC(C)C)C(=O)N[C@@H](C)C(=O)NCC(=O)NCC(=O)N1CCC[C@H]1C(=O)N[C@@H](CO)C(=O)N[C@@H](CCCCNC(=O)[C@@H](N)CCCCNC(=O)[C@@H](N)CCCCNC(=O)CC[C@H](NC(=O)CCCCCCCCCCCCCCCCC(=O)O)C(=O)O)C(=O)NCC(=O)N[C@@H](C)C(=O)N1CCC[C@H]1C(=O)N1CCC[C@H]1C(=O)N1CCC[C@H]1C(=O)N[C@@H](CO)C(=O)O` [Compound No. 43] (H-Y[Aib]EGTFTSDYSILLEEQAAREFIEWLLAGGPSK([εLys-εLys-γGlu-C18 diacid])GAPPPS-OH) gave a Cmax/Dose of 0.22 kg/L.

For the molecule `CC[C@H](C)[C@H](NC(=O)[C@H](Cc1ccccc1)NC(=O)[C@H](CCC(=O)O)NC(=O)[C@H](CCCNC(=N)N)NC(=O)[C@H](C)NC(=O)[C@H](C)NC(=O)[C@H](CCC(N)=O)NC(=O)[C@H](CCCCNC(=O)[C@@H](N)CCCCNC(=O)[C@@H](N)CCCCNC(=O)CC[C@H](NC(=O)CCCCCCCCCCCCCCCCC(=O)O)C(=O)O)NC(=O)[C@H](CCC(=O)O)NC(=O)[C@H](CC(C)C)NC(=O)[C@H](CC(C)C)NC(=O)[C@@H](NC(=O)[C@H](CO)NC(=O)[C@H](Cc1ccc(O)cc1)NC(=O)[C@H](CC(=O)O)NC(=O)[C@H](CO)NC(=O)[C@@H](NC(=O)[C@H](Cc1ccccc1)NC(=O)[C@@H](NC(=O)CNC(=O)[C@H](CCC(=O)O)NC(=O)C(C)(C)NC(=O)[C@@H](N)Cc1ccc(O)cc1)[C@@H](C)O)[C@@H](C)O)[C@@H](C)CC)C(=O)N[C@@H](CCC(=O)O)C(=O)N[C@@H](Cc1c[nH]c2ccccc12)C(=O)N[C@@H](CC(C)C)C(=O)N[C@@H](CC(C)C)C(=O)N[C@@H](C)C(=O)NCC(=O)NCC(=O)N1CCC[C@H]1C(=O)N[C@@H](CO)C(=O)N[C@@H](CO)C(=O)NCC(=O)N[C@@H](C)C(=O)N1CCC[C@H]1C(=O)N1CCC[C@H]1C(=O)N1CCC[C@H]1C(=O)N[C@@H](CO)C(=O)O` [Compound No. 31] (H-Y[Aib]EGTFTSDYSILLEK([εLys-εLys-γGlu-C18 diacid])QAAREFIEWLLAGGPSSGAPPPS-OH), the Cmax/Dose is given as 0.35** kg/L.

In the case of `CC[C@H](C)[C@H](NC(=O)[C@H](Cc1ccccc1)NC(=O)[C@H](CCC(=O)O)NC(=O)[C@H](CCCNC(=N)N)NC(=O)[C@H](C)NC(=O)[C@H](C)NC(=O)[C@H](CCC(N)=O)NC(=O)[C@H](CCCCNC(=O)COCCOCCNC(=O)COCCOCCNC(=O)CC[C@H](NC(=O)CCCCCCCCCCCCCCCCC(=O)O)C(=O)O)NC(=O)[C@H](CCC(=O)O)NC(=O)[C@H](CC(C)C)NC(=O)[C@H](CC(C)C)NC(=O)[C@@H](NC(=O)[C@H](CO)NC(=O)[C@H](Cc1ccc(O)cc1)NC(=O)[C@H](CC(=O)O)NC(=O)[C@H](CO)NC(=O)[C@@H](NC(=O)[C@H](Cc1ccccc1)NC(=O)[C@@H](NC(=O)CNC(=O)[C@H](CCC(=O)O)NC(=O)C(C)(C)NC(=O)[C@@H](N)Cc1ccc(O)cc1)[C@@H](C)O)[C@@H](C)O)[C@@H](C)CC)C(=O)N[C@@H](CCC(=O)O)C(=O)N[C@@H](Cc1c[nH]c2ccccc12)C(=O)N[C@@H](CC(C)C)C(=O)N[C@@H](CC(C)C)C(=O)N[C@@H](C)C(=O)NCC(=O)NCC(=O)N1CCC[C@H]1C(=O)N[C@@H](CO)C(=O)N[C@@H](CO)C(=O)NCC(=O)N[C@@H](C)C(=O)N1CCC[C@H]1C(=O)N1CCC[C@H]1C(=O)N1CCC[C@H]1C(=O)N[C@@H](CO)C(=O)O` [Compound No. 32] (H-Y[Aib]EGTFTSDYSILLEK([AEEA-AEEA-γGlu-C18 diacid])QAAREFIEWLLAGGPSSGAPPPS-OH), the Cmax/Dose is 0.45* kg/L.
